According to US8637566B2, “Slow infusion of sulcardine and its salts” (HUYA Bioscience International LLC, priority 2009, dated 2014):

Columns and labels:
[1] = system: conscious beagle dogs; assay: 10 minute intravenous infusion, increasing doses: mean blood pressure, heart rate, plasma histamine (ELISA); format: in vivo, dog; settings: pretreatment before i.v. sulcardine sulfate
[2] = system: anesthetized dogs; assay: Hemodynamic effects of 15 minute infusions (10, 30, 90 mg/kg) with or without diphenhydramine pretreatment; format: in vivo, dog; settings: given prior to IV sulcardine sulfate
Method: Dogs were administered morphine (2 mg/kg subcutaneously) approximately 10-19 minutes prior to administration of anesthesia. Dogs were anesthetized with 1% α-chloralose (100 mg/kg intravenous), followed by a constant infusion of α-chloralose (35-75 mg/kg/hr, IV). Two healthy female dogs were administered escalating doses of sulcardine sulfate intravenously over 15 minutes in an acetate buffer system at dose levels of 10, 30 and 90 mg/kg with dose administrations separated by 60 minutes. Another set of two dogs received test article after pre-treatment with diphenhydramine (1 mg/kg administered 30 minutes prior to start of test article infusion). Following drug administration, dogs were evaluated for ventricular, pulmonary and peripheral hemodynamic changes using Swanz Ganz and femoral catheters as well as by monitoring of blood oxygen saturation, test article blood level, body temperature, blood biochemistry, hematology, ECG, and histamine levels.

[3] = system: post-MI canine; assay: Defibrillation threshold / failure risk in post-MI canine model; format: in vivo

Defibrillation failure risk [3] | SMILES | Effect of pretreatment on histamine-mediated events of sulcardine sulfate [1] | Effect of anti-histamine on cutaneous manifestations of histamine release (flushing and facial and ear edema) [2] | Effect of anti-histamine on hypotension seen on dosing [2]
 | CN(C)CCOC(c1ccccc1)c1ccccc1 [diphenhydramine, reference compound] | prevented the histamine-mediated events | blunting some of the cutaneous manifestations of histamine release | only partially reversed the hypotension
 | N#Cc1cc(NC(=O)C(=O)O)c(Cl)c(NC(=O)C(=O)O)c1 [lodoxamide] | prevented the histamine-mediated events |  | 
increase defibrillation failure risk | O=C(NCC1CCCCN1)c1cc(OCC(F)(F)F)ccc1OCC(F)(F)F (centres unmarked) [flecanide] |  |  | 
